In the supplement of paper PMC10011410:
± gives the standard deviation of the averaged measurements.

Legend:
U-2 OS [1] = experiment: relative cell count vs DMSO (cell painting) (fraction of DMSO control); higher = more cells remaining (less cytotoxic); details: 24 h
Summary of the method: (§1)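 Using 384-well plates holding about 1,500 U-2 OS cells per well, treatment was applied by pin tool for 24 h at 37 °C, generally at six 2-fold concentrations ranging from 20 μM to 625 nM. Staining with MitoTracker, concanavalin A, phalloidin, wheat germ agglutinin, Hoechst and SYTO 14 preceded Opera Phenix imaging and CellProfiler feature extraction against DMSO cells on the same plate. Activity score and cell count are both referenced to DMSO wells, the former as a Mahalanobis distance. Four replicate plates were averaged for every value.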

U-2 OS [2] = experiment: total intracellular glutathione (GSH + GSSG) relative to DMSO (% of control); higher = more glutathione; details: 24 h
Summary of the method: (§2)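 Most compounds were tested at 20, 10 and 5 μM with 0.4% DMSO, applied by pin tool to U-2 OS cells 24 h after seeding at 750 per well in white low-volume 384-well plates, followed by 24 h at 37 °C. Separate plates were read by luminescence for total glutathione and GSSG (GSH/GSSG-Glo) or for viability (CellTiter-Glo). Background- and row/column-corrected data are shown relative to vehicle or as a GSH:GSSG ratio.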

U-2 OS [3] = experiment: cell painting activity score (Mahalanobis distance from DMSO wells); higher = stronger morphological phenotype; details: 24 h
Summary of the method: as §1

U-2 OS [4] = experiment: intracellular GSH:GSSG ratio (calculated); higher = more reduced glutathione pool; details: 24 h
Description: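 Intracellular glutathione in U-2 OS cells after 24 h compound treatment at 5, 10 and 20 uM (some at 40 and 80 uM). Total glutathione and GSSG were measured with the GSH/GSSG-Glo kit, and the GSH:GSSG ratio was calculated. Mean of five technical replicate plates.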

U-2 OS [5] = experiment: AUC of culture confluence over time (live-cell imaging) (AUC (confluence % x time)); higher = more confluent culture (less growth inhibition)
Summary of the method: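 In 384-well plates, U-2 OS cells were seeded at 750 per well in F-12K medium containing 10% FBS. A pin tool added compounds 24 h after seeding, most at 20, 10 and 5 μM, along with 0.2% DMSO. Confluence was then followed at 37 °C on an Incucyte S3 (10x objective), with images every 4 h for up to 60 h. Values give the area under the confluence-versus-time curve.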

U-2 OS [6] = experiment: cell viability (CellTiter-Glo) relative to DMSO (% of control); higher = more viable; details: 24 h
Summary of the method: as §2

| SMILES | relative cell count (U-2 OS [1]; 0.625 µM) | relative cell count (U-2 OS [1]; 1.25 µM) | relative cell count (U-2 OS [1]; 2.5 µM) | relative cell count (U-2 OS [1]; 5 µM) | relative cell count (U-2 OS [1]; 10 µM) | relative cell count (U-2 OS [1]; 20 µM) | total intracellular glutathione (U-2 OS [2]; 5 µM) | total intracellular glutathione (U-2 OS [2]; 10 µM) | total intracellular glutathione (U-2 OS [2]; 20 µM) | cell painting activity score (U-2 OS [3]; 0.625 µM) | cell painting activity score (U-2 OS [3]; 1.25 µM) | cell painting activity score (U-2 OS [3]; 2.5 µM) | cell painting activity score (U-2 OS [3]; 5 µM) | cell painting activity score (U-2 OS [3]; 10 µM) | cell painting activity score (U-2 OS [3]; 20 µM) | intracellular GSH:GSSG ratio (U-2 OS [4]; 5 µM) | intracellular GSH:GSSG ratio (U-2 OS [4]; 10 µM) | intracellular GSH:GSSG ratio (U-2 OS [4]; 20 µM) | AUC of culture confluence over time (U-2 OS [5]; 5 µM) | AUC of culture confluence over time (U-2 OS [5]; 10 µM) | AUC of culture confluence over time (U-2 OS [5]; 20 µM) | cell viability (U-2 OS [6]; 5 µM) | cell viability (U-2 OS [6]; 10 µM) | cell viability (U-2 OS [6]; 20 µM) | relative cell count (U-2 OS [1]; 40 µM) | relative cell count (U-2 OS [1]; 80 µM) | total intracellular glutathione (U-2 OS [2]; 40 µM) | total intracellular glutathione (U-2 OS [2]; 80 µM) | cell painting activity score (U-2 OS [3]; 40 µM) | cell painting activity score (U-2 OS [3]; 80 µM) | intracellular GSH:GSSG ratio (U-2 OS [4]; 40 µM) | intracellular GSH:GSSG ratio (U-2 OS [4]; 80 µM) | AUC of culture confluence over time (U-2 OS [5]; 40 µM) | AUC of culture confluence over time (U-2 OS [5]; 80 µM) | cell viability (U-2 OS [6]; 40 µM) | cell viability (U-2 OS [6]; 80 µM) | AUC of culture confluence over time (U-2 OS [5]; 0.625 µM) | AUC of culture confluence over time (U-2 OS [5]; 1.25 µM) | AUC of culture confluence over time (U-2 OS [5]; 2.5 µM) |
| --- | --- | --- | --- | --- | --- | --- | --- | --- | --- | --- | --- | --- | --- | --- | --- | --- | --- | --- | --- | --- | --- | --- | --- | --- | --- | --- | --- | --- | --- | --- | --- | --- | --- | --- | --- | --- | --- | --- | --- |
| O=C(CCCCCCC(=O)Nc1ccccc1)NO | 1.01 | 0.936 | 0.838 | 0.776 | 0.491 | 0.438 | 60.5 ± 3.5 | 47.6 ± 4.1 | 39.5 ± 5.2 | 9.26 | 11.1 | 12 | 12 | 17.1 | 14.8 | 8.04 | 6.39 | 4.82 | 20.3 | 17.9 | 18.6 | 55.2 ± 5.3 | 49.6 ± 3 | 44 ± 2 |  |  |  |  |  |  |  |  |  |  |  |  |  |  |  |
| O=C(O[C@@H]1Cc2c(O)cc(O)cc2O[C@@H]1c1cc(O)c(O)c(O)c1)c1cc(O)c(O)c(O)c1 | 0.966 | 1 | 0.981 | 0.96 | 0.989 | 0.897 | 96 ± 2.7 | 102 ± 5.6 | 63.7 ± 3.8 | 3.76 | 4.88 | 4.25 | 4.82 | 5.68 | 10.4 | 24.8 | 18.8 | 11.4 | 48.7 | 49.6 | 48.6 | 98.8 ± 3.2 | 97.6 ± 4.7 | 69.1 ± 19 | 0.843 | 0.466 | 77.8 ± 5.7 | 53.9 ± 4.4 | 4.51 | 14.8 | 14 | 12 | 41.4 | 28.3 | 83 ± 14 | 43.2 ± 2.7 |  |  |  |
| Cc1cc(NC(=O)c2cccc(NC(=O)/C=C/CN(C)C)c2)ccc1Nc1nccc(-c2cccnc2)n1 | 0.888 | 0.863 | 0.841 | 0.839 | 0.742 | 0.425 | 93.9 ± 3.6 | 94.7 ± 6.5 | 72.6 ± 3.4 | 10.3 | 11.4 | 11 | 10.8 | 11.1 | 13 | 23.3 | 21 | 8.13 | 45.6 | 31.1 | 15.2 | 102 ± 7.2 | 98.9 ± 2.7 | 78.6 ± 5.4 |  |  |  |  |  |  |  |  |  |  |  |  |  |  |  |
| CCOc1cc2ncc(C#N)c(Nc3ccc(OCc4ccccn4)c(Cl)c3)c2cc1NC(=O)/C=C/CN(C)C | 0.995 | 0.842 | 0.811 | 0.76 | 0.778 | 0.757 | 58.3 ± 2.8 | 61.3 ± 2.5 | 59.5 ± 3.7 | 6.66 | 11.4 | 14.6 | 10.9 | 9.93 | 13.4 | 11.7 | 10.4 | 8.69 | 33.1 | 34.1 | 21.3 | 71.7 ± 4.9 | 71 ± 3.7 | 73.1 ± 7.3 |  |  |  |  |  |  |  |  |  |  |  |  |  |  |  |
| CC(=O)c1c(O)c(C)c(O)c(Cc2c(O)c3c(c(C(=O)C=Cc4ccccc4)c2O)OC(C)(C)C=C3)c1O | 1.07 | 1.12 | 1.14 | 1.14 | 1.11 | 1.07 | 95.7 ± 2.9 | 91.7 ± 4.9 | 89.9 ± 4.4 | 4.78 | 3.41 | 4.37 | 3.79 | 6.83 | 11.2 | 25.1 | 24.3 | 26.6 | 39.9 | 35.4 | 29 | 98.4 ± 1.9 | 93.9 ± 3.6 | 91.9 ± 4.7 | 0.889 | 0.727 | 83.2 ± 1.9 | 84.2 ± 4.5 | 13.1 | 12.8 | 26.7 | 15 | 22.2 | 18.2 | 89 ± 4.1 | 78.4 ± 1.5 |  |  |  |
| COC[C@H]1OC(=O)c2coc3c2[C@@]1(C)C1=C(C3=O)[C@@H]2CCC(=O)[C@@]2(C)C[C@H]1OC(C)=O | 0.905 ± 0.054 | 0.905 ± 0.038 | 0.882 ± 0.07 | 0.873 ± 0.059 | 0.837 ± 0.065 | 0.785 ± 0.058 | 85.3 ± 3.2 | 82.6 ± 4 | 76.8 ± 3.8 | 7.82 ± 1.2 | 8.77 ± 1.2 | 8.96 ± 1.1 | 9.66 ± 1 | 10.4 ± 0.73 | 11.2 ± 0.66 | 26.3 | 27.5 | 21.8 | 49.5 | 38.5 | 28.4 | 83.6 ± 1.5 | 76 ± 2.8 | 69.3 ± 1.1 |  |  |  |  |  |  |  |  |  |  |  |  | 57.9 | 56.1 | 56.6 |
| O=S1(=O)CCc2ccccc21 | 1.03 | 0.988 | 1.02 | 1.05 | 1.02 | 1.02 | 104 ± 1.9 | 109 ± 7.8 | 106 ± 7.5 | 4.91 | 3.74 | 4.94 | 4.01 | 4.61 | 6.81 | 26 | 25.7 | 22.4 | 51 | 51.8 | 54.2 | 101 ± 3.4 | 101 ± 5.8 | 102 ± 2.9 |  |  |  |  |  |  |  |  |  |  |  |  |  |  |  |
